Measurements published in PubChem BioAssay AID1963965 (Molecular Pharmacology Branch, DTP, NCI, 2024).
One block for each compound: values may come before it.

Tested on: 996289-038-R-J1-PDC spheroid viability
Test: Anticancer human tumor 996289-038-R-J1-PDC patient-derived colon adenocarcinoma cell line growth inhibition [PI3K]
Settings: spheroids with HUVEC and MSC; for viability, T/C: stronger effect = lower value
Text: Combinatorial screen of targeted agents with the PI3K inhibitors inavolisib, alpelisib, duvelisib, and copanlisib in multi-cell type tumor spheroids
A high-throughput screen of multi-cell type tumor spheroids was designed to identify active combinations of targeted small molecules and PI3K pathway inhibitors. Complex spheroids include a stromal component modeled by human endothelial cells (HUVEC) and fibroblasts modeled by human mesenchymal stem cells (MSCs). The concentration ranges selected for each drug and investigational agent were based upon clinically achievable concentrations if the clinical Cmax of the agent was known.
Compounds. The drugs and investigational agents: inavolisib (NSC800729), alpelisib (NSC765974), duvelisib (NSC772469), copanlisib (NSC816437), ipatasertib (NSC767898), afuresertib (NSC778305), talazoparib (NSC767125), sapanisertib (NSC764658), selumetinib (NSC741078), tovorafenib (DAY101, NSC766906), vemurafenib (NSC761431), ravoxertinib (NSC781343), sotorasib (NSC818433), MRTX1133 (NSC 836407), abemaciclib (NSC 768073), palbociclib (NSC758247), venetoclax (NSC 766270), SY5609 (NSC837396), enzalutamide (NSC755605), and darolutamide (NSC825331), were obtained from the National Cancer Institute (NCI) Developmental Therapeutics Program Chemical Repository. The FDA-approved anticancer drug set is available from the NCI Developmental Therapeutics Program. […] The stock solutions were prepared in dimethyl sulfoxide (DMSO, Sigma-Aldrich, St. Louis, MO, cat. D2650) at 800-fold the tested concentration and stored at -70 degrees C prior to their use. All drugs and investigational agents were tested over a range starting from a high concentration at or near the clinical Cmax and decreasing in half-log increments. If the clinical Cmax for an agent had not been determined, the highest concentration tested was 10 microM.
Cell Culture. All cells were maintained in an incubator at 37 degrees C and 5% CO2 with 95% humidity. The PDC lines were cultured according to standard operating procedures established by the NCI PDMR (https://pdmr.cancer.gov/sops/default.htm). All PDCs were thawed and cultured in Matrigel-coated flasks prepared with a working solution of 1X Ham's F-12 nutrient mix, without supplementation (Invitrogen, Waltham, MA, cat. 11765054), 100 U/mL penicillin-streptomycin (Invitrogen, cat. 15140122), and 2.5% Matrigel (Corning Inc., Corning, NY, cat. 354248) for the first three passages. The 354836-022-R-J1-PDC, 475296-252-R-J1-PDC, and 997726-040-R-J2-PDC lines were cultured in 6A media, which includes advanced DMEM/F-12 (Thermo Fisher Scientific, cat. 12634028), 10 mM HEPES (Thermo Fisher Scientific, cat. 15630080), 1X GlutaMAX supplement (Thermo Fisher Scientific, cat. 35050061), 0.1 mg/mL primocin (InvivoGen, San Diego, CA, cat. ant-pm-2), 10% defined fetal bovine serum, heat inactivated (HyClone Laboratories Inc., Logan, UT, cat. SH30070.03HI), 50% L-WRN conditioned media (ATCC, cat. CRL-3276), 1.25 mM N-Acetyl-L-cysteine (Sigma-Aldrich, cat. A9165), 10 mM nicotinamide (Sigma-Aldrich, cat. N0636), 1X B-27 supplement (Thermo Fisher Scientific, cat. 17504044), 1X N-2 supplement (Thermo Fisher Scientific, cat. 17502048), and 10 microM Y-27632 dihydrochloride (Tocris Bioscience, Bristol, United Kingdom, cat. 1254). The 624824-186-R-J2-PDC line was cultured in 6C/Colon 1B media, which includes all 6A media components plus 50 ng/mL human EGF recombinant protein (Thermo Fisher Scientific, cat. PHG0311). […]

[1] = curve of first compound, second compound 0.00316 µM
[2] = curve of first compound, second compound 0.01 µM
[3] = curve of first compound, second compound 0.0316 µM
[4] = curve of first compound, second compound 0.1 µM
[5] = curve of first compound, second compound 0.316 µM
[6] = curve of first compound, second compound 1 µM
[7] = second compound 0.00316 µM, first compound 0.0316 µM
[8] = second compound 0.00316 µM, first compound 0.1 µM
[9] = second compound 0.00316 µM, first compound 0.316 µM
[10] = second compound 0.00316 µM, first compound 1 µM
[11] = second compound 0.00316 µM, first compound 3.16 µM
[12] = second compound 0.00316 µM, first compound 10 µM
[13] = second compound 0.01 µM, first compound 0.0316 µM
[14] = second compound 0.01 µM, first compound 0.1 µM
[15] = second compound 0.01 µM, first compound 0.316 µM
[16] = second compound 0.01 µM, first compound 1 µM
[17] = second compound 0.01 µM, first compound 3.16 µM
[18] = second compound 0.01 µM, first compound 10 µM
[19] = second compound 0.0316 µM, first compound 0.0316 µM
[20] = second compound 0.0316 µM, first compound 0.1 µM
[21] = second compound 0.0316 µM, first compound 0.316 µM
[22] = second compound 0.0316 µM, first compound 1 µM
[23] = second compound 0.0316 µM, first compound 3.16 µM
[24] = second compound 0.0316 µM, first compound 10 µM
[25] = second compound 0.1 µM, first compound 0.0316 µM
[26] = second compound 0.1 µM, first compound 0.1 µM
[27] = second compound 0.1 µM, first compound 0.316 µM
[28] = second compound 0.1 µM, first compound 1 µM
[29] = second compound 0.1 µM, first compound 3.16 µM
[30] = second compound 0.1 µM, first compound 10 µM
[31] = second compound 0.316 µM, first compound 0.0316 µM
[32] = second compound 0.316 µM, first compound 0.1 µM
[33] = second compound 0.316 µM, first compound 0.316 µM
[34] = second compound 0.316 µM, first compound 1 µM
[35] = second compound 0.316 µM, first compound 3.16 µM
[36] = second compound 0.316 µM, first compound 10 µM
[37] = second compound 1 µM, first compound 0.0316 µM
[38] = second compound 1 µM, first compound 0.1 µM
[39] = second compound 1 µM, first compound 0.316 µM
[40] = second compound 1 µM, first compound 1 µM
[41] = second compound 1 µM, first compound 3.16 µM
[42] = second compound 1 µM, first compound 10 µM
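Note: spheroids exposed to compounds for seven days before viability read.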
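Throughout, for viability, T/C: luminescence used as a proxy for viable cell amount; percent viability relative to DMSO vehicle control as 100%.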

IC50 [1]: 5.89 µM | IC50 [2]: 6.12 µM | IC50 [3]: 5.81 µM | IC50 [4]: 5.11 µM | IC50 [5]: 4.38 µM | IC50 [6]: 1.67 µM
Compound: CCCS(=O)(=O)Nc1ccc(F)c(C(=O)c2c[nH]c3ncc(-c4ccc(Cl)cc4)cc23)c1F + CC(Nc1ccc2c(c1)OCCn1cc(N3C(=O)OCC3C(F)F)nc1-2)C(N)=O
viability, T/C [7]: 108% | viability, T/C [8]: 89.7% | viability, T/C [9]: 86.3% | viability, T/C [10]: 96.7% | viability, T/C [11]: 83.4% | viability, T/C [12]: 21.2% | viability, T/C [13]: 101% | viability, T/C [14]: 95.8% | viability, T/C [15]: 97.8% | viability, T/C [16]: 101% | viability, T/C [17]: 88% | viability, T/C [18]: 21.4% | viability, T/C [19]: 95% | viability, T/C [20]: 98.5% | viability, T/C [21]: 96.6% | viability, T/C [22]: 99.4% | viability, T/C [23]: 82.5% | viability, T/C [24]: 20.6% | viability, T/C [25]: 72.4% | viability, T/C [26]: 71.8% | viability, T/C [27]: 74.6% | viability, T/C [28]: 73.4% | viability, T/C [29]: 75.8% | viability, T/C [30]: 16.9% | viability, T/C [31]: 74.8% | viability, T/C [32]: 74.3% | viability, T/C [33]: 76.6% | viability, T/C [34]: 68% | viability, T/C [35]: 65.1% | viability, T/C [36]: 15.1% | viability, T/C [37]: 63.1% | viability, T/C [38]: 72.3% | viability, T/C [39]: 61.7% | viability, T/C [40]: 52.1% | viability, T/C [41]: 44.9% | viability, T/C [42]: 12.1%

IC50 (curve of compound): > 10 µM
Compound: C=CC(=O)N1CCN(c2nc(=O)n(-c3c(C)ccnc3C(C)C)c3nc(-c4c(O)cccc4F)c(F)cc23)C(C)C1 (stereo not given)
viability, T/C (compound 0.0316 µM): 99.2% [middle of 4 runs] | viability, T/C (compound 0.1 µM): 97.6% [middle of 4 runs] | viability, T/C (compound 1 µM): 106% [middle of 4 runs] | viability, T/C (compound 3.16 µM): 117% [middle of 4 runs] | viability, T/C (compound 10 µM): 111% [middle of 4 runs]

IC50 [1]: > 10 µM | IC50 [2]: 7.33 µM | IC50 [3]: 4.62 µM | IC50 [4]: 1.84 µM | IC50 [5]: 1.83 µM | IC50 [6]: 0.352 µM
Compound: Cn1ncc(Cl)c1-c1cc(C(=O)NC(CN)Cc2cccc(F)c2)sc1Cl (stereo not given) + CC(Nc1ccc2c(c1)OCCn1cc(N3C(=O)OCC3C(F)F)nc1-2)C(N)=O
viability, T/C [7]: 83.3% | viability, T/C [8]: 82.9% | viability, T/C [9]: 84.3% | viability, T/C [10]: 80% | viability, T/C [11]: 60% | viability, T/C [12]: 54.5% | viability, T/C [13]: 111% | viability, T/C [14]: 97% | viability, T/C [15]: 83.8% | viability, T/C [16]: 73.7% | viability, T/C [17]: 58.6% | viability, T/C [18]: 46.5% | viability, T/C [19]: 87.2% | viability, T/C [20]: 84.2% | viability, T/C [21]: 76.6% | viability, T/C [22]: 64.8% | viability, T/C [23]: 61.3% | viability, T/C [24]: 35.5% | viability, T/C [25]: 77.8% | viability, T/C [26]: 80.2% | viability, T/C [27]: 63.9% | viability, T/C [28]: 56% | viability, T/C [29]: 46% | viability, T/C [30]: 33.6% | viability, T/C [31]: 66.9% | viability, T/C [32]: 59.6% | viability, T/C [33]: 75.7% | viability, T/C [34]: 55.3% | viability, T/C [35]: 43.2% | viability, T/C [36]: 28.9% | viability, T/C [37]: 53.5% | viability, T/C [38]: 52.6% | viability, T/C [39]: 52.6% | viability, T/C [40]: 43.9% | viability, T/C [41]: 38.4% | viability, T/C [42]: 25.8%
